A short description of series [1]: Selectivity index, ratio of CC50 for HFF-1 cells to IC50 for intracellular amastigote form of Trypanosoma cruzi Tulahuen expressing Escherichia coli LacZ gene infected in HFF-1 cells. It is filed as toxicity. To be noted: human, read-out: Selectivity Index.
Series [2] is described as follows: Electrochemical behavior of the compound assessed as oxidation onset potential by cyclic voltammetry analysis relative to normal hydrogen electrode. It is filed as physicochemical.
The test system of a further series is Trypanosoma cruzi. In words: Antitrypanosomal activity against intracellular amastigote form of Trypanosoma cruzi Tulahuen expressing Escherichia coli LacZ gene infected in HFF-1 cells incubated for 120 hrs by automated microplate reader. It is filed as functional, organism-based. The settings on record: HFF-1, 120 h.
Series [3] in a line: Cytotoxicity against HFF-1 cells incubated for 72 hrs by MTS tetrazolium assay. It is filed as toxicity, cell-based. The settings on record: human. (In general: Tetrazolium dyes change colour on reduction, which living cells bring about.)
Series [4] is described as follows: Electrochemical behavior of the compound assessed as reduction onset potential by cyclic voltammetry analysis relative to normal hydrogen electrode. It is filed as physicochemical.

The record followed here is ChEMBL document CHEMBL5352411, “Synthesis and investigation of the trypanocidal potential of novel 1,2,3-triazole-selenide hybrids” (Eur J Med Chem, 2022).

The structures appear in SMILES notation.

The IC50 is the concentration that inhibits the measured activity by half. Higher therefore signals weaker potency. As a reminder, the CC50 is the concentration that lowers cell viability or growth by half. Read a low CC50 as harm at low concentration.

On to `Cc1ccc([Se]Cc2cn(-c3ccccc3)nn2)cc1`, for which the selectivity ratio in series [1] turned out to be 8.4. Further, the Ep in series [2] is reported as 0.81 V. For the same compound, the IC50 in the series on Trypanosoma cruzi came to 7.4 µM. In series [3], this compound gave a CC50 at 72 h of 56.1 µM.

In the case of `Cc1cc(C)c([Se]Cc2cn(-c3ccccc3)nn2)c(C)c1`, the Ep in series [2] is 1.03 V. In the series with Trypanosoma cruzi, this compound displayed an IC50 of 39.2 µM.

On to `O=C(Cn1ccnc1[N+](=O)[O-])NCc1ccccc1` [BENZNIDAZOLE], for which the selectivity ratio in series [1] was greater than 30.5. The same compound registered an IC50 with Trypanosoma cruzi of 2.1 µM. The compound also showed a CC50 at 72 h in series [3] greater than 64 µM.

For `Fc1ccc([Se]Cc2cn(-c3ccccc3)nn2)cc1`, the selectivity ratio in series [1] is greater than 5.5. For the same compound, the Ep in series [2] turned out to be 0.76 V. The compound further came in with an IC50 with Trypanosoma cruzi of 11.6 µM. In series [3], this compound yielded a CC50 at 72 h of 62.5 µM.

As for `c1ccc(-n2cc(C[Se]c3cccc4ccccc34)nn2)cc1`, the selectivity ratio in series [1] was greater than 20.6. Besides, the values for the Ep in series [2] and in series [4] were 0.96 V and -0.82 V, respectively. This compound also displayed an IC50 in the series with Trypanosoma cruzi of 3.1 µM. This compound returned a CC50 at 72 h in series [3] greater than 64 µM.

Consider `Clc1ccc(-n2cc(C[Se]c3ccccc3)nn2)cc1`, for which the selectivity ratio in series [1] is greater than 5.6. The Ep in series [2] was 0.81 V. For the same compound, the IC50 in the series with Trypanosoma cruzi was 11.5 µM. In series [3], this compound returned a CC50 at 72 h greater than 64 µM.

As to `c1ccc([Se]Cc2cn(-c3ccccc3)nn2)cc1`, the selectivity ratio in series [1] amounted to 5.9. Besides, the Ep in series [2] turned out to be 0.79 V. Besides, the IC50 with Trypanosoma cruzi was found to be 8.2 µM. This compound also yielded a CC50 at 72 h in series [3] of 48 µM.

In the case of `Cc1ccc(-n2cc(C[Se]c3ccccc3)nn2)cc1`, the selectivity ratio in series [1] is greater than 6.9. Moreover, the Ep in series [2] amounted to 0.85 V. Besides, in the series with Trypanosoma cruzi, the IC50 was found to be 9.3 µM. In addition, the CC50 at 72 h in series [3] was greater than 64 µM.

Take `Clc1ccccc1-n1cc(C[Se]c2ccccc2)nn1`: the selectivity ratio in series [1] is greater than 4.2. For the same compound, in series [2], the Ep is reported as 0.83 V. This compound also came in with an IC50 in the series on Trypanosoma cruzi of 15.2 µM. In addition, the CC50 at 72 h in series [3] was greater than 64 µM.

Regarding `c1ccc(-n2cc(C[Se]c3cccs3)nn2)cc1`, the selectivity ratio in series [1] came to 2.8. Besides, in series [2], the Ep is recorded as 1.22 V. Besides, the IC50 with Trypanosoma cruzi was 15.6 µM. The compound also registered a CC50 at 72 h in series [3] of 43.1 µM.

For the compound `Cc1ccccc1-n1cc(C[Se]c2ccccc2)nn1`, the selectivity ratio in series [1] was greater than 6.5. Also, the Ep in series [2] is 0.83 V. Further, in the series with Trypanosoma cruzi, the IC50 turned out to be 9.8 µM.

`FC(F)(F)c1cccc([Se]Cc2cn(-c3ccccc3)nn2)c1`: the selectivity ratio in series [1] was greater than 11.9. The Ep is on record as 0.97 V in series [2] and -0.92 V in series [4]. In the series on Trypanosoma cruzi, this compound yielded an IC50 of 5.4 µM. Moreover, in series [3], the CC50 at 72 h is greater than 64 µM.

Regarding `O=[N+]([O-])c1ccc(-n2cc(C[Se]c3ccccc3)nn2)cc1`, the Ep in series [2] was 0.9 V; in series [4] it was -1.11 V. Also, the IC50 in the series on Trypanosoma cruzi was greater than 64 µM.

With `c1ccc(SCc2cn(-c3ccccc3)nn2)cc1`, the Ep in series [2] was 1.06 V. The IC50 with Trypanosoma cruzi was found to be 21.2 µM.

On to `COc1ccc(-n2cc(C[Se]c3ccccc3)nn2)cc1`, for which the selectivity ratio in series [1] is greater than 5. The Ep in series [2] stood at 0.75 V. In addition, 12.7 µM corresponded to half-maximal inhibition with Trypanosoma cruzi (IC50). This compound yielded a CC50 at 72 h in series [3] greater than 64 µM.

Take `Cc1cccc(-n2cc(C[Se]c3ccccc3)nn2)c1`: in series [1], the selectivity ratio is greater than 7. Further, in series [2], the Ep came to 0.84 V. The same compound came in with an IC50 in the series with Trypanosoma cruzi of 9.2 µM. This compound also came in with a CC50 at 72 h in series [3] greater than 64 µM.

In the case of `Clc1ccc([Se]Cc2cn(-c3ccccc3)nn2)cc1`, in series [1], the selectivity ratio was 3.3. Moreover, the Ep in series [2] worked out at 0.84 V. This compound also displayed an IC50 in the series with Trypanosoma cruzi of 16.8 µM. Moreover, the CC50 at 72 h in series [3] is greater than 64 µM.
